The values below come from patent publication US4322428A, “2(4-Fluorophenyl)-4,5,-bis(4-methoxyphenyl)thiazole and method of use” (Eli Lilly and Company, priority 1980, dated 1982).

For this test, the system named is writhing in Cox standard strain albino male mice. Briefly: mouse-writhing test (analgesic), acetic acid-induced writhing. The class given is in vivo. To be noted: oral (p.o.), corn oil-acacia emulsion, writhing induced by intraperitoneal 0.55% (55 mg/kg) acetic acid, read-out: ED50 (effective dosage needed to inhibit 50% of the writhing). Here is the method:
An intraperitoneal injection of 0.55% (55 mg/kg.) acetic acid induces writhing in the mice, which is characterized by contraction of the abdominal musculature, extension of the hindlegs, and rotation of the trunk. The compounds were administered in a corn oil-acacia emulsion. The number of writhes is counted for both the control and treated animals and the percent inhibition computed as follows: [formula]
All dosages were given orally (p.o.) and are expressed in mg/kg. The term "ED50 " means an effective dosage needed to inhibit 50% of the writhing.
(An intraperitoneal irritant provokes the stretching counted in writhing tests.)

For orientation: ED50 means the dose that gives a 50% effect, or the effect in half of the subjects. As to `COc1ccc(-c2nc(-c3ccc(Br)cc3)sc2-c2ccc(OC)cc2)cc1` [2-(4-Bromophenyl)-4,5-bis(4-methoxyphenyl)thiazole], the ED50 amounted to 1.46 mg/kg.

Consider `COc1ccc(-c2nc(-c3ccc(Cl)cc3)sc2-c2ccc(OC)cc2)cc1` [2-(4-Chlorophenyl)-4,5-bis(4-methoxyphenyl)thiazole], for which the ED50 is 3.75 mg/kg.

Consider `COc1ccc(-c2nc(-c3ccc(F)cc3)sc2-c2ccc(OC)cc2)cc1` [2-(4-Fluorophenyl)-4,5-bis(4-methoxyphenyl)thiazole], for which the ED50 worked out at 0.82 mg/kg.

In the case of `COc1ccc(-c2nc(-c3ccccc3)sc2-c2ccc(OC)cc2)cc1` [2-Phenyl-4,5-bis(4-methoxyphenyl)thiazole], the ED50 stood at 2.3 mg/kg.
